# Experimental data reported in publication PMC12313019, “Fibrotic lung ECM upregulates SDC4/integrin-αvβ1 interaction and the interfering peptide SDC4_87-131 and its derivative peptides alleviate pulmonary fibrosis” (Regenerative Biomaterials, 2025).
# Experiments:
# fibroblast = assay: CCK-8 fibroblast viability/toxicity; assay type: cell-based, mouse; conditions: CCK-8, 48 h, 10–1000 nM
# Procedure: (§1) Decellularized lung ECM (dECM) was prepared as described in previous study. 2 × 10^5 cells/mL NIH3T3 cells (mouse […], purchased from the Stem Cell Bank of the Chinese Academy of Sciences, Shanghai, China) were seeded on the dECM slices attached to the bottom of the culture dish and cultured in DMEM medium containing 0.5% fetal bovine serum (Gibco, Waltham, MA, USA) at 37°C and 5% CO2.
# (A) Schematic diagram of SDC487-131; (B) Effect of SDC487-131 and GRGDNP on fibroblast proliferation at 48 h was determined by CCK-8 method (n=3); (C) Effect of different concentration of SDC487-131 on fibroblast activation induced by d-PF for 48 h (n=5). Note: **p < 0.01 vs. PBS in d-Nor group; #p < 0.05 vs. PBS in d-PF group. d-Nor: dECM-Nor; d-PF: dECM-PF.
# Figure S14. The viability of fibroblast after treated with peptides for 48 h was detected by CCK-8 assay.
# integrin-β1 = assay: Flow cytometry of integrin-β1 activation (9EG7) in fibroblast; assay type: cell-based, mouse; conditions: SDC4_87-131 100 nM, C8 20 nM, 48 h
# Procedure: as §1
# The single cell suspension of mouse lung tissue was obtained by grinding. After the remaining red blood cells were lysed with ACK Lysis Buffer (TBD, NH4CL2009), 1×10^6 cells/100 μL of cells were added with Fixable Viability Stain 780 (BD, #565388). After incubation at room temperature in the dark for 10-15 min, the suspension was washed twice with PBS containing 1%-2% FBS. The FCR antibody TruStain FcX™ PLUS (BD, #156603) was added to the cell suspension at a ratio of 0.25 μL:100 μL and blocked on ice for 10 min. Then, the antibody was incubated at an appropriate concentration and time according to the manufacturer's instructions. Antibodies include CD45 (Biolegend, #157619), CD140a (Thermo Fisher, #25-1401-82), SDC-4 (Sino Biological, #50726-R112-P), SP-C (Bioss, #bs-10067R-FITC) and Integrin-β1 (9Eg7, BD, 553715), and AF647 anti-Rat (CST, #4418S) was used as the secondary antibody. After incubation, cells were washed and resuspended, and detected using LSRFortessaX-20 (BD).
# SDC4/integrin-αv = assay: Duolink-PLA, SDC4/integrin-αv extracellular interaction in fibroblast; assay type: cell-based, mouse; conditions: SDC4_87-131 100 nM; with Anti-SDC4(93-121), n=5
# Procedure: as §1
# (§2) Cells or tissue slices were attached to slides, fixed and permeabilized and blocked with Duolink^TM (Merck, MO, USA) blocking buffer. Antibodies against the extracellular domain of SDC4 (5G9, mouse IgG, SCBT #sc-12766), integrin-αv (rabbit IgG, CST #4711) and integrin-β1 (rabbit IgG, CST #34971) were diluted and added to the samples and incubated overnight at 4°C. After washing, PLUS and MINUS (proximity ligation assay, PLA) probes were added to the samples and incubated at 37°C for 1 h. After washing, the samples were sequentially incubated with PLUS and MINUS (PLA) probes, ligation buffer and amplification buffer containing polymerase. Finally, the samples were mounted with in situ mounting medium containing DAPI. Images were acquired using a Leica SP5 confocal microscope (Leica Biosystems, Germany) and quantitative analysis was performed using ImageJ software.
# SDC4/integrin-β1 = assay: Duolink-PLA, SDC4/integrin-β1 extracellular interaction in fibroblast; assay type: cell-based, mouse; conditions: SDC4_87-131 100 nM; with Anti-SDC4(93-121), n=5
# Procedure: as §1, §2
# [1] = test system: integrin-αvβ1, FAK/AKT and PKCα/NF-κB pathways in NIH3T3 cells; assay: Western blot of signaling proteins in dECM-stimulated fibroblast; assay type: cell-based, mouse; conditions: n=3
# Procedure: as §1
# 20 mg of lung tissue was extracted with RIPA lysis buffer (Roche International Ltd., Bermuda, USA), and the protein concentration was determined using a BCA protein detection kit (Roche). Protein samples were separated by 10% sodium dodecyl sulfate polyacrylamide gel (SDS-PAGE) electrophoresis and transferred to a PVDF membrane. After blocking, the PVDF membrane was incubated with primary antibodies for α-SMA, Integrin-αV, SDC4, Integrin-β1, p-Smad3, FAK, and p-FAK (CST, #19245, #4711, #12236S, #34971, #9520S, #3285S, and #3284S) at 4°C overnight, followed by incubation with secondary antibodies (CST, #7074P2), development with ECL reagent (SAB), and acquisition of images with a chemiluminescence imaging system (ChemiScope 5600).
# [2] = test system: BLM-induced PF, C57BL/6J mice; assay: BLM-induced PF in mice: RT-PCR of lung tissue; assay type: in vivo, mouse; conditions: BLM lung tissue
# Procedure: (§3) After the mice were anesthetized (1% sodium pentobarbital 50 mg/kg was injected intraperitoneally), 150 μL of bleomycin (BLM, 5 mg/mL, BIO-000001) was inhaled into the lungs of the mice by tracheal inhalation instillation. One day later, the mice were randomly divided into model and drug treatment groups, and the mice in the control group were only subjected to saline inhalation.
# (§4) Based on the dosage of SDC2 fragment peptide and our experimental results (Supplementary Figure S10A and B), the dosage schedule of SDC4_87-131 was set as follows: starting on the third day after BLM inhalation, 1 mg/kg, administered via trachea infusion once every three days. And Anti-SDC4(93-121) 8 mg/kg was administered on the third and tenth days (reference dosage).
# Total RNA was extracted from cells or lung tissue (10 mg) using Trizol reagent, and mRNA was reverse transcribed into cDNA using HiScript® II QRT SuperMix for qPCR (Vazyme, #R223-01). Real-time fluorescence quantitative PCR (RT-PCR) was performed using Hieff® qPCR SYB Green Master Mix (YEASEN, #11201ES08) to obtain the Ct value. The 2^−ΔΔCt method was used to obtain the relative expression level of mRNA in each group. Primers (Table 1) were purchased from Sangon Biotech.
# [3] = test system: BLM-induced PF, C57BL/6J mice; assay: BLM-induced PF in mice: lung index and blood cell count; assay type: in vivo, mouse; conditions: n=6
# Procedure: as §3, §4
# At the termination of the experiment, the mice were euthanized and their lung tissues were taken after the eyeballs were removed and blood was collected. Within 2 hours after blood collection, the blood samples were tested on the URIT-2900VetPLUS automatic animal blood cell analyzer.
substance,measurement,setting,value
Ac-NHIPERAGSGSQVPTEPKKLEENEVIPKRISPVEESEDVSNKVSM-NH2 [SDC4_87-131],toxicity to fibroblast,fibroblast,no significant toxicity to fibroblast
same,dECM-PF-induced integrin-β1 activation,integrin-β1,significantly inhibited dECM-PF-induced integrin-β1 activation
same,integrin-αv/SDC4 interaction induced by dECM-PF,SDC4/integrin-αv,significantly reduce
same,integrin-β1/SDC4 interaction induced by dECM-PF,SDC4/integrin-β1,significantly reduce
same,expression of integrin-β1,[1]; in vitro vs in vivo PF model,only reduced in the in vitro PF model
same,expression level of integrin-αv,"[1]; in vitro, 100 nM, 48 h",significantly reduced the expression level of integrin-αv
same,FAK/AKT phosphorylation,"[1]; in vitro, 100 nM",inhibit FAK/AKT phosphorylation activation in both in vitro and in vivo experiments
same,phosphorylation level of PKCα and nuclear content of NF-κB (p65),"[1]; in vitro, SDC4_87-131 100 nM, C8 20 nM, Anti-SDC4(93-121) 100 ng/mL",could downregulate
same,"mRNA levels of α-SMA, FN, Col I, TGF-β1, IL-1β, IL-6 and TNF-α","[2]; 1 mg/kg ITD q3d, n=4–6",significantly reduced
same,IL-6 downregulation vs C8,[2]; n=4–5,stronger effect in downregulating IL-6 than C8
same,downregulating effect (blood leukocyte count) vs C8,[3]; Figure 5F,notably stronger than that of C8
same,lung index and blood leukocyte count,"[3]; SDC4_87-131, C8, Anti-SDC4(93-121) groups",could reduce the lung index and blood leukocyte count
